# Assay results reported in EPA's ToxRefDB 2.
# Columns and labels:
# rat [1] = settings: Prenatal developmental toxicity study, fischer, Inhalation, Whole-Body, dose end: 15 GD
# rat [2] = settings: Neurotoxicity screening battery; fischer; Inhalation; Whole-Body; dose end: 24 week; group: cannot be grouped; systemic / in life observation / body weight / body weight
# rat [3] = settings: Combined chronic toxicity/carcinogenicity, wistar, Inhalation, Whole-Body, dose end: 125 week, group: systemic
# rat [4] = settings: Multigenerational reproductive toxicity study; fischer; Inhalation; Whole-Body; dose end: 2 generation; group: parental; systemic / in life observation / body weight / body weight
# rat [5] = settings: Subchronic oral toxicity in rodents, other, Feed, dose end: 90 day, group: systemic
# dog [6] = settings: Subchronic oral toxicity in nonrodent, beagle, Capsule, dose end: 90 day, group: systemic
# rat [7] = settings: Prenatal developmental toxicity study; wistar; Oral; Gavage/Intubation; dose end: 18 GD; group: developmental; systemic / organ weight / epididymis / absolute + systemic / organ weight / liver / absolute
# rat [8] = settings: Prenatal developmental toxicity study; wistar; Oral; Gavage/Intubation; dose end: 18 GD; group: developmental; systemic / organ weight / epididymis / absolute + systemic / organ weight / liver / absolute; remark: listed apart in the source
# mouse [9] = settings: Carcinogenicity; cd1; Oral; Feed; dose end: 79 week; group: systemic; systemic / hematology / leukocyte (wbc) count differential / leukocyte (wbc) + systemic / hematology / lymphocyte / lymphocyte + systemic / …
# dog [10] = settings: Chronic toxicity; beagle; Oral; Feed; dose end: 12 month; group: systemic; systemic / clinical chemistry / beta globulin / beta globulin + systemic / hematology / erythrocyte (rbc) count differential / erythrocyte (…
# rat [11] = settings: Subchronic oral toxicity in rodents, sprague dawley, Feed, dose end: 90 day, group: systemic
# dog [12] = settings: Subchronic oral toxicity in nonrodent, beagle, Feed, dose end: 90 day, group: systemic
# rat [13] = settings: Multigenerational reproductive toxicity study; long evans; Oral; Gavage/Intubation; dose end: 1 generation; group: offspring; systemic / organ weight / vagina / absolute + systemic / organ weight / vagina / relative to body weight
# rat [14] = settings: Subchronic oral toxicity in rodents, fischer, Water, dose end: 25 week, group: systemic, systemic / in life observation / body weight / body weight gain
# mouse [15] = settings: Chronic toxicity, b6c3f1, Oral, Water, dose end: 104 week, group: systemic
# rat [16] = settings: Chronic toxicity; fischer; Oral; Water; dose end: 104 week; group: systemic; systemic / pathology microscopic / mammary gland / fibroadenoma
# mouse [17] = settings: Subchronic oral toxicity in rodents, b6c3f1, Water, dose end: 13 week, group: systemic
# rat [18] = settings: Sub-acute repeat dose toxicity; wistar; Injection; Intravenous; dose end: 28 day; group: systemic; systemic / clinical chemistry / calcium / calcium
# mouse [19] = settings: Combined chronic toxicity/carcinogenicity; other; Oral; Feed; dose end: 365 day; group: systemic; systemic / pathology microscopic / blood / lymphoma malignant
# rat [20] = settings: Combined chronic toxicity/carcinogenicity; fischer; Oral; Feed; dose end: 365 day; group: systemic; systemic / in life observation / body weight / body weight
# rat [21] = settings: Prenatal developmental toxicity study; sprague dawley; Oral; Feed; dose end: 15 GD; group: maternal; systemic / in life observation / body weight / body weight gain + systemic / in life observation / food consumption / food consumption
# rat [22] = settings: Prenatal developmental toxicity study, sprague dawley, Oral, Gavage/Intubation, dose end: 15 GD
# mouse [23] = settings: Carcinogenicity, b6c3f1, Oral, Feed, dose end: 24 month
# mouse [24] = settings: Carcinogenicity; b6c3f1; Oral; Feed; dose end: 103 week; group: systemic; systemic / in life observation / body weight / body weight
# rat [25] = settings: Sub-acute repeat dose toxicity; fischer; Oral; Feed; dose end: 14 day; group: systemic; systemic / in life observation / body weight / body weight gain + systemic / in life observation / clinical signs / urogenital staining + …
# mouse [26] = settings: Sub-acute repeat dose toxicity; b6c3f1; Oral; Feed; dose end: 14 day; group: systemic; systemic / in life observation / clinical signs / fur (altered appearance) + systemic / in life observation / mortality / mortality
# rat [27] = settings: Subchronic oral toxicity in rodents, fischer, Feed, dose end: 13 week, group: systemic
# rat [28] = settings: Carcinogenicity; fischer; Oral; Feed; dose end: 103 week; group: systemic; systemic / in life observation / body weight / body weight + systemic / pathology microscopic / eye / cataract + systemic / pathology …
# [29] = group: developmental, developmental / developmental malformation / bone / supernumerary
# [30] = group: maternal, systemic / in life observation / body weight / body weight gain + systemic / in life observation / food consumption / food consumption
# [31] = group: maternal, systemic / in life observation / body weight / body weight gain + systemic / in life observation / food consumption / food consumption + …
# [32] = systemic / in life observation / body weight / body weight
# [33] = systemic / in life observation / body weight / body weight gain
# [34] = systemic / in life observation / body weight / body weight gain + systemic / pathology microscopic / kidney / casts + systemic / pathology …
# [35] = systemic / clinical chemistry / [other] / [other] + systemic / clinical chemistry / bilirubin / total bilirubin + systemic / clinical …
# [36] = systemic / in life observation / body weight / body weight gain + systemic / organ weight / spleen / relative to body weight + systemic / …
# [37] = systemic / pathology microscopic / blood / lymphoma malignant
# [38] = systemic / pathology microscopic / blood / lymphoma malignant + systemic / in life observation / body weight / body weight
# [39] = systemic / in life observation / body weight / body weight gain + systemic / in life observation / mortality / mortality + systemic / …
# [40] = group: developmental, systemic / in life observation / body weight / fetal weight
# [41] = group: cholinesterase, cholinesterase / cholinesterase / cholinesterase / brain cholinesterase (che)
# [42] = group: cholinesterase, cholinesterase / cholinesterase / cholinesterase / brain cholinesterase (che) + cholinesterase / cholinesterase / cholinesterase / plasma …
# [43] = group: systemic, systemic / in life observation / clinical signs / convulsions + systemic / pathology gross / lymph node / enlarged + systemic / pathology …
# [44] = systemic / in life observation / body weight / body weight gain + systemic / in life observation / clinical signs / skin discoloration + …
structure (smiles),measurement,setting,value
"CC1CO1 (centres undefined) [1,2-Propylene oxide]",LEL,rat [1]; [29],500 ppm
same,LOAEL,rat [1]; [29],500 ppm
same,NEL,rat [1]; [29],300 ppm
same,NOAEL,rat [1]; [29],300 ppm
same,LOAEL,rat [1]; [30],500 ppm
same,LEL,rat [1]; [31],500 ppm
same,NEL,rat [1]; [31],300 ppm
same,NOAEL,rat [1]; [31],300 ppm
same,LEL,rat [2],100 ppm
same,LOAEL,rat [2],> 300 ppm
same,NEL,rat [2],30 ppm
same,NOAEL,rat [2],≥ 300 ppm
same,LEL,rat [3]; [32],30 ppm
same,NEL,rat [3]; [32],< 30 ppm
same,LOAEL,rat [3]; systemic / pathology microscopic / nose / [other] + systemic / pathology microscopic / nose / hyperplasia,100 ppm
same,NOAEL,rat [3]; systemic / pathology microscopic / nose / [other] + systemic / pathology microscopic / nose / hyperplasia + systemic / pathology microscopic…,30 ppm
same,LEL,rat [4],30 ppm
same,LOAEL,rat [4],> 300 ppm
same,NEL,rat [4],< 30 ppm
same,NOAEL,rat [4],≥ 300 ppm
CCc1occc(=O)c1O [2-Ethyl-3-hydroxy-4H-pyran-4-one],LEL,rat [5]; [33],500 mg/kg/day
same,LOAEL,rat [5]; [34],> 1000 mg/kg/day
same,NEL,rat [5]; [34],250 mg/kg/day
same,NOAEL,rat [5]; [34],≥ 1000 mg/kg/day
same,LOAEL,dog [6]; [35],> 500 mg/kg/day
same,NOAEL,dog [6]; [35],≥ 500 mg/kg/day
same,NEL,dog [6]; systemic / clinical chemistry / bilirubin / total bilirubin + systemic / hematology / anemia / anemia - hemolytic + systemic / pathology …,125 mg/kg/day
same,LEL,dog [6]; systemic / pathology microscopic / liver / hemosiderosis,250 mg/kg/day
CCCCCCCCCc1ccc(O)cc1 [4-Nonylphenol],LEL,rat [7],15 mg/kg/day
same,LOAEL,rat [7],> 75 mg/kg/day
same,NEL,rat [7],3 mg/kg/day
same,NOAEL,rat [7],≥ 75 mg/kg/day
same,LEL,rat [8],15 mg/kg/day
same,LOAEL,rat [8],> 75 mg/kg/day
same,NEL,rat [8],3 mg/kg/day
same,NOAEL,rat [8],≥ 75 mg/kg/day
COc1ccc(-c2ccccc2)cc1NNC(=O)OC(C)C [Bifenazate],LEL,mouse [9],15.4 mg/kg/day
same,LOAEL,mouse [9],15.4 mg/kg/day
same,NEL,mouse [9],1.5 mg/kg/day
same,NOAEL,mouse [9],1.5 mg/kg/day
same,LEL,dog [10],8.95 mg/kg/day
same,LOAEL,dog [10],8.95 mg/kg/day
same,NEL,dog [10],1.01 mg/kg/day
same,NOAEL,dog [10],1.01 mg/kg/day
same,LEL,rat [11]; systemic / clinical chemistry / protein / protein,13.8 mg/kg/day
same,NEL,rat [11]; systemic / clinical chemistry / protein / protein + systemic / hematology / erythrocyte (rbc) count differential / erythrocyte (rbc) + …,2.7 mg/kg/day
same,LOAEL,rat [11]; [36],16.3 mg/kg/day
same,NOAEL,rat [11]; [36],3.2 mg/kg/day
same,LOAEL,dog [12]; systemic / hematology / mean corpuscular (cell) volume (mcv) / mean corpuscular (cell) volume (mcv) + systemic / hematology / mean …,10.4 mg/kg/day
same,LEL,dog [12]; [33],0.9 mg/kg/day
same,NEL,dog [12]; [33],< 0.9 mg/kg/day
same,NOAEL,dog [12]; systemic / in life observation / body weight / body weight gain + systemic / hematology / mean corpuscular (cell) volume (mcv) / mean …,0.9 mg/kg/day
[O][Cl+][O-] [Chlorine dioxide],LEL,rat [13],10 mg/kg/day
same,LOAEL,rat [13],> 10 mg/kg/day
same,NEL,rat [13],5 mg/kg/day
same,NOAEL,rat [13],≥ 10 mg/kg/day
O=C1CCCCC1 [Cyclohexanone],LEL,rat [14],325 mg/kg/day
same,LOAEL,rat [14],> 325 mg/kg/day
same,NEL,rat [14],235 mg/kg/day
same,NOAEL,rat [14],≥ 325 mg/kg/day
same,LEL,mouse [15]; [37],867 mg/kg/day
same,NEL,mouse [15]; [37],< 867 mg/kg/day
same,LOAEL,mouse [15]; [38],> 3330 mg/kg/day
same,NOAEL,mouse [15]; [38],≥ 3330 mg/kg/day
same,LEL,rat [16],325 mg/kg/day
same,LOAEL,rat [16],> 325 mg/kg/day
same,NEL,rat [16],165 mg/kg/day
same,NOAEL,rat [16],≥ 325 mg/kg/day
same,LEL,mouse [17]; [33],3330 mg/kg/day
same,LOAEL,mouse [17]; [39],> 6270 mg/kg/day
same,NEL,mouse [17]; [39],1730 mg/kg/day
same,NOAEL,mouse [17]; [39],≥ 6270 mg/kg/day
same,LEL,rat [18],100 mg/kg/day
same,LOAEL,rat [18],> 100 mg/kg/day
same,NEL,rat [18],50 mg/kg/day
same,NOAEL,rat [18],≥ 100 mg/kg/day
CCCCCC(N)=O [Hexanamide],LEL,mouse [19],1500 mg/kg/day
same,LOAEL,mouse [19],> 1500 mg/kg/day
same,NEL,mouse [19],< 1500 mg/kg/day
same,NOAEL,mouse [19],≥ 1500 mg/kg/day
same,LEL,rat [20],750 mg/kg/day
same,LOAEL,rat [20],> 750 mg/kg/day
same,NEL,rat [20],< 750 mg/kg/day
same,NOAEL,rat [20],≥ 750 mg/kg/day
COP(=S)(OC)SCN1C(=O)c2ccccc2C1=O [Phosmet],LEL,rat [21],27 mg/kg/day
same,LOAEL,rat [21],> 29 mg/kg/day
same,NEL,rat [21],22 mg/kg/day
same,NOAEL,rat [21],≥ 29 mg/kg/day
same,LEL,rat [22]; [40],5 mg/kg/day
same,LOAEL,rat [22]; [40],> 30 mg/kg/day
same,NEL,rat [22]; [40],< 5 mg/kg/day
same,NOAEL,rat [22]; [40],≥ 30 mg/kg/day
same,LEL,rat [22]; [30],20 mg/kg/day
same,LOAEL,rat [22]; [31],> 30 mg/kg/day
same,NEL,rat [22]; [31],10 mg/kg/day
same,NOAEL,rat [22]; [31],≥ 30 mg/kg/day
same,LOAEL,mouse [23]; [41],1 mg/kg/day
same,NOAEL,mouse [23]; [41],< 1 mg/kg/day
same,LEL,mouse [23]; [42],1 mg/kg/day
same,NEL,mouse [23]; [42],< 1 mg/kg/day
same,LOAEL,"mouse [23]; group: systemic, systemic / in life observation / clinical signs / convulsions",4 mg/kg/day
same,LEL,mouse [23]; [43],1 mg/kg/day
same,NEL,mouse [23]; [43],< 1 mg/kg/day
same,NOAEL,"mouse [23]; group: systemic, systemic / in life observation / clinical signs / convulsions + systemic / pathology microscopic / liver / hepatocellular adenoma + systemic…",1 mg/kg/day
CCCOC(=O)c1cc(O)c(O)c(O)c1 [Propyl gallate],LEL,mouse [24],900 mg/kg/day
same,LOAEL,mouse [24],900 mg/kg/day
same,NEL,mouse [24],< 900 mg/kg/day
same,NOAEL,mouse [24],< 900 mg/kg/day
same,LEL,rat [25],2500 mg/kg/day
same,LOAEL,rat [25],> 5000 mg/kg/day
same,NEL,rat [25],1250 mg/kg/day
same,NOAEL,rat [25],≥ 5000 mg/kg/day
same,LEL,mouse [26],7500 mg/kg/day
same,LOAEL,mouse [26],> 15000 mg/kg/day
same,NEL,mouse [26],3750 mg/kg/day
same,NOAEL,mouse [26],≥ 15000 mg/kg/day
same,LEL,rat [27]; [33],625 mg/kg/day
same,LOAEL,rat [27]; [33],625 mg/kg/day
same,NEL,rat [27]; [44],300 mg/kg/day
same,NOAEL,rat [27]; [44],300 mg/kg/day
same,LEL,rat [28],300 mg/kg/day
same,LOAEL,rat [28],300 mg/kg/day
same,NEL,rat [28],< 300 mg/kg/day
same,NOAEL,rat [28],< 300 mg/kg/day
